{"source": "patent US20100035867A1", "about": "(priority 2006, published 2010)", "key": {"adenylyl cyclase [1]": {"tested_on": "adenylyl cyclase", "format": "cell-based, human"}, "adenylyl cyclase [2]": {"tested_on": "adenylyl cyclase", "format": "cell-based, human", "remark": "listed apart in the source"}, "T84 cells": {"tested_on": "T84 cells", "experiment": "STa-induced chloride transport in T84 cells (SPQ)", "format": "cell-based, human", "conditions": "increasing STa concentrations, 50 μM compound", "description": "The chloride transport assay was performed by a method known in the art (West, M. R.; Molloy, C. R., A microplate assay measuring chloride ion channel activity. Anal Biochem 1996, 241, (1), 51-8). In some experiments, MQAE was used as a fluorescent sensor for chloride anions and in other experiments, SPQ was used to detect chloride efflux from T84 cells.\nThis experiment followed the protocol described in Examples 2 and 10. SPQ was used to detect chloride efflux from T84 cells."}, "[3]": {"tested_on": "adenylyl cyclase or guanylyl cyclase", "format": "cell-based", "conditions": "read-out: typical IC50"}, "[4]": {"target": "T1, guanylyl cyclase type A (GC-A) (Rattus norvegicus, UniProt P18910)", "T1 sequence (P18910 29-1057)": "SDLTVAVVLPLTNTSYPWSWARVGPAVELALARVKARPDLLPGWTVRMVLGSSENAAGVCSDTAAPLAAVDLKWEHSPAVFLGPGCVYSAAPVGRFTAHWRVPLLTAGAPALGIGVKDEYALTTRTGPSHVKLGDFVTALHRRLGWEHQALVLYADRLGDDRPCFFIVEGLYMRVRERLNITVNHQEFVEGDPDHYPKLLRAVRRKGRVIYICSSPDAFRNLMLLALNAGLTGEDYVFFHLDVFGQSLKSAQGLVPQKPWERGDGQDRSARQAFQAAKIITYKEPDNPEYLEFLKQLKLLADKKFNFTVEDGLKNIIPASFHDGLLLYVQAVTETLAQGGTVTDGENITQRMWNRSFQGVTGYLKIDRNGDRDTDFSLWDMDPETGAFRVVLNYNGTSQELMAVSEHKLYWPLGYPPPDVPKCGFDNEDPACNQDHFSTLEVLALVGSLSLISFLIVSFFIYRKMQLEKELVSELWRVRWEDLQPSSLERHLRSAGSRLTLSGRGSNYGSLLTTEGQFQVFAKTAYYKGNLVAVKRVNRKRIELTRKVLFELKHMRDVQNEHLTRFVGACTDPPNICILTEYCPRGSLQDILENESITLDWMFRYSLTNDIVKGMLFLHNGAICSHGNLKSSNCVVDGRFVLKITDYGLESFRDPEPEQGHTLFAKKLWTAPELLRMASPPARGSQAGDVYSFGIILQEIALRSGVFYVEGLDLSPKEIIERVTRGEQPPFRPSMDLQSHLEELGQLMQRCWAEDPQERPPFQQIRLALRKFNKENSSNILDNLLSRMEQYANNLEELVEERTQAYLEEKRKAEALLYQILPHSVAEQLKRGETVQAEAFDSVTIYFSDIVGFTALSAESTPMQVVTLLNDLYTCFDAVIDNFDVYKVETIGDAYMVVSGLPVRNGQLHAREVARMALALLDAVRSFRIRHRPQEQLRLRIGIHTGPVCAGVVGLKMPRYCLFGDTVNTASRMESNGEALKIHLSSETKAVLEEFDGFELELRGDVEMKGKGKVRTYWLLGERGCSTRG", "experiment": "ANP-induced cyclic GMP accumulation in RFL-6 fibroblast cells", "conditions": "RFL-6 cells, 1 μM ANP, 50 μM compound"}, "[5]": {"target": "T2, soluble guanylyl cyclase (sGC) (Rattus norvegicus, UniProt P19686+P20595)", "T2 sequence (P20595 1-619)": "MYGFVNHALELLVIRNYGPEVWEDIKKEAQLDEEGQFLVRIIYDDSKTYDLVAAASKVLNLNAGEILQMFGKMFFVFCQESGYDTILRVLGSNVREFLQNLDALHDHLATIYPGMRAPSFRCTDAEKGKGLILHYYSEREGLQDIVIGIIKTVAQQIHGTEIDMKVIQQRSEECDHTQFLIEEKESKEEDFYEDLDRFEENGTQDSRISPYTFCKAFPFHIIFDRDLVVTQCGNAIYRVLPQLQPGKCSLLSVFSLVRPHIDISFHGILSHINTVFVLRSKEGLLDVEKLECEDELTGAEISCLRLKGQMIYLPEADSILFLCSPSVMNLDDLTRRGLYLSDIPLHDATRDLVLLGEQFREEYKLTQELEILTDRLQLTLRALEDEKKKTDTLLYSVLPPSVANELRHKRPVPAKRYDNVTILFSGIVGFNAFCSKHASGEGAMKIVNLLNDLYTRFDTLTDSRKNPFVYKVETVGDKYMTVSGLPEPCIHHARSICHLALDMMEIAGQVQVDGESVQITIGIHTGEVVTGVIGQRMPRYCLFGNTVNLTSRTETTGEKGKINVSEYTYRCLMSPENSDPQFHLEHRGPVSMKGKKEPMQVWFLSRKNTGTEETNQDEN", "T2 sequence (P19686 1-690)": "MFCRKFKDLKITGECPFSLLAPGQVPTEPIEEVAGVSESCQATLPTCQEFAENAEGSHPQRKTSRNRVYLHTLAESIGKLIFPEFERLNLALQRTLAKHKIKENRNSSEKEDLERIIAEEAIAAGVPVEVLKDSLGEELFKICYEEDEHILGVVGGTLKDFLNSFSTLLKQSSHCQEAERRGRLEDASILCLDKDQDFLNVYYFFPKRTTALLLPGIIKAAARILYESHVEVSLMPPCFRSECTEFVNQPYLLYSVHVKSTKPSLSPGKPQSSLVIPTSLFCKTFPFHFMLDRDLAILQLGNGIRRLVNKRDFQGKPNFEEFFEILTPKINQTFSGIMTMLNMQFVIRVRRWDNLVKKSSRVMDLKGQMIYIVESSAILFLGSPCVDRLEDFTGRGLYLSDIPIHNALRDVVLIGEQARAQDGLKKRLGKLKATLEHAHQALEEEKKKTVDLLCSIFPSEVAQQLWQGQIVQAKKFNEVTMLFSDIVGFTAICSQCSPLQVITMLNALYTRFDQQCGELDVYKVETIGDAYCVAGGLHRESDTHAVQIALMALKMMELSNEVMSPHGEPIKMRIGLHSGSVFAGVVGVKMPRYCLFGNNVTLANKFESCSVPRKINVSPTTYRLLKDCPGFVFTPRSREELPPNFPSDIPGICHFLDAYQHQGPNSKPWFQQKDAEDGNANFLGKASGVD", "experiment": "Nitric oxide donor-induced cyclic GMP accumulation in RFL-6 fibroblast cells", "conditions": "RFL-6 cells, 10 μM benzotrifuroxan, 50 μM compound"}}, "note": "Several values for one entry are separate records, joined by “and”; a condition that tells them apart may be missing. Equal entries are not always repeated."}
{"smiles": "Cn1c2c(c(=O)n(C)c1=O)C(c1cccc(Br)c1)C1=C(N2)c2ccccc2C1=O", "note": "(stereo not shown) [compound IIb]", "values": [{"measurement": "amount of cyclic AMP accumulated", "setting": "adenylyl cyclase [1]", "value": "1.2±0.1", "unit": "nmol/mg protein"}, {"measurement": "inhibition of cholera toxin-induced cyclic AMP", "setting": "adenylyl cyclase [1]; T84 cells, cholera toxin 1 μg/ml, 50 μM compound", "value": 84.6, "unit": "%"}, {"measurement": "inhibition of cyclic AMP accumulation", "setting": "adenylyl cyclase [2]", "value": "41.3% and 58.2%"}, {"measurement": "STa-induced increase in chloride efflux", "setting": "T84 cells", "value": "significantly suppressed"}, {"measurement": "IC50", "setting": "[3]", "value": "~5", "unit": "µM"}, {"measurement": "inhibition of cyclic GMP accumulation (FIG. 6)", "setting": "[4]", "value": "inhibition"}, {"measurement": "inhibition of cyclic GMP accumulation (FIG. 6)", "setting": "[5]", "value": "inhibition"}]}
